Experiments:
[1] = system: IFN gamma; assay: IFN gamma secretion assay in human PBMCs (PHA-M-stimulated, ELISA); type: cell-based; conditions: PBMC, PHA-M 10 ug/mL 40 hr, read-out: IFNγ inhibitory activity IC50
Procedure: Fetal bovine serum (FBS) was obtained from ThermoFisher (Cat #16000044). • Other reagents: 96well TC plates were obtained from ThermoFisher (Cat #07-2000-90).
IFN-gamma was assessed using a standard ELISA protocol. Cryopreserved PBMCs were thawed in a water bath and transferred to 50 mL polypropylene tubes. The cells were washed two times with 25 mL of RPMI medium supplemented with 5% of regular FBS and re-suspended at a density of 1.5^10^6 cells/mL. The cells were plated into 96 well TC late (100 uL/well). Serially diluted compound was added to the cells in duplicate wells for each concentration. Control wells received DMSO only (0.3% final). The cells were pre-incubated with compound for 2 hr. After pre-incubation, the cells were stimulated by PHA-M (10 ug/mL) for 40 hr. Control samples with and without PHA-M in the absence of compound were assembled in each test plate. IFNg was detected in media supernatants by using a sandwich anti-IFNg ELISA kit (BD Biosciences) according to protocol provided by the manufacturer. ELISA readout (optical density at 450 nm) is commensurable with the amount of IFNg produced by the cells. Assay window was determined in each experiment by comparing average OD450 values in stimulated and un-stimulated samples in the absence of compound. ELISA calibration was performed in each detection plate using serially diluted recombinant human IFN gamma, to ensure that OD450 values for all test samples were within linear range of detection.%-Inhibition by compound was calculated using following equation:
[formula] • where OD450100% is optical density in control samples stimulated with PHA-M without compound, OD4500% is optical density in unstimulated control samples, and OD450compound is optical density in a sample stimulated with PHA-M in the presence of compound.
(§1) The calculated %-Inh values were plotted against compound concentration. To determine IC50 values, dose-response curves were fitted by a 4-parameter sigmoid inhibition model using XLFit® software (IDBS).

[2] = system: TNFα; assay: TNFa secretion assay in human PBMCs (LPS-stimulated, ELISA); type: cell-based; conditions: PBMC, LPS 100 ng/mL 6 hr, read-out: TNF inhibitory activity IC50
Procedure: Fetal bovine serum (FBS) was obtained from ThermoFisher (Cat #16000044). • Other reagents: 96well TC plates were obtained from ThermoFisher (Cat #07-2000-90). LPS was obtained from Sigma (Cat #L3024).
TNF-alpha was assessed using a standard ELISA protocol. Cryopreserved PBMCs were thawed in a water bath and transferred to 50 mL polypropylene tubes. The cells were washed two times with 25 mL of RPMI medium supplemented with 5% of heat-inactivated FBS and re-suspended at a density of 4.5^10^6 cells/mL. The cells were plated into 96 well TC late (100 uL/well). Serially diluted compound was added to the cells in duplicate wells for each concentration. Control wells received DMSO only (0.3% final). The cells were pre-incubated with compound for 1 hr. After pre-incubation, the cells were stimulated by LPS (100 ng/mL) for 6 hr. Control samples with and without LPS in the absence of compound were assembled in each test plate. TNFa was detected in media supernatants by using a sandwich anti-TNFα ELISA kit (BD Biosciences) according to protocol provided by the manufacturer. ELISA readout (optical density at 450 nm) is commensurable with the amount of TNFα produced by the cells. Assay window was determined in each experiment by comparing average OD450 values in stimulated and un-stimulated samples in the absence of compound. ELISA calibration was performed in each detection plate using serially diluted recombinant human TNFα, to ensure that OD450 values for all test samples were within linear range of detection.%-Inhibition by compound was calculated using following equation:
[formula] • where OD450100% is optical density in control samples stimulated with LPS without compound, OD4500% is optical density in unstimulated control samples, and OD450compound is optical density in a sample stimulated with LPS in the presence of compound.
as §1

SMILES	IC50 [1]	IC50 [2]
CCCCCc1cc(OC)c2c(c1OC)OC(C)(CCC=C(C)C)C=C2 (stereo not shown) [Formula XXIV]	4.2 µM	10.6 µM
CCCCCc1cc(O)c2c(c1O)OC(C)(CCC=C(C)C)C=C2 (stereo not shown) [Formula XXII]	1.97 µM	9.2 µM
CCCCCc1cc(OC(C)=O)c2c(c1OC(C)=O)OC(C)(CCC=C(C)C)C=C2 (stereo not shown) [Formula XXIII]	0.48 µM	9.95 µM
CCCCCC1=CC(=O)C2=C(OC(C)(CCC=C(C)C)C=C2)C1=O (stereo not shown) [Formula II]	0.39 µM	0.93 µM
CCCCCC1=C(NCCC)C(=O)C2=C(OC(C)(CCC=C(C)C)C=C2)C1=O (stereo not shown) [Formula XXV]	> 10 µM	9 µM
CC(C)=CCCC1(C)C=CC2=C(O1)C(=O)c1ccccc1C2=O (stereo not shown) [Formula XXVII]	> 10 µM	> 10 µM
CCCCCC1=C(NCC)C(=O)C2=C(OC(C)(CCC=C(C)C)C=C2)C1=O (stereo not shown) [Formula XXVIII]	> 10 µM	> 10 µM
CCCCCC1=CC(=O)C2=C(O[C@](C)(CCC=C(C)C)C=C2)C1=O [Formula XXVI]	0.31 µM	0.62 µM

Reference: patent US20250057859A1, “CANNABICHROMENEQUINONE AND ANALOGUES THEREOF, AND METHOD OF USING COMPOSITIONS THEREOF AS ANTI-INFLAMMATORY AGENTS” (Juva Life, Inc., priority 2021, published 2025)
